For series [1], the system named is P. falciparum (FCR3). Nature of the series: [3H]-hypoxanthine incorporation, parasite growth inhibition (chloroquine-resistant strain FCR3). It is filed as cell-based, Plasmodium falciparum. The protocol:
P. falciparum (clone D6, chloroquine-sensitive; strain FCR3, chloroquine-resistant; and clone W2, multidrug-resistant) was grown in vitro by the method of Trager and Jensen, (1976) Science 193, 673-675. • Figure 1 illustrates the effect of desipramine on the inhibition of parasite growth. […] Isobologram analysis was carried out according to the method of Martin, et al., (1987) Science 235, 899-901 and Berenbaum, (1978) Journal of Infectious Diseases 137, 122-130. […] The X-axis is the IC₅₀ (concentration of drug which inhibits hypoxanthine incorporation by 50%) of chloroquine in the absence or presence of desipramine while the Y-axis is the IC₅₀ for desipramine in the absence or presence of chloroquine. […] Dose-response curves and IC₅₀'s for chloroquine were determined either in the absence of desipramine or in the presence of a fixed concentration of desipramine ranging from 50 ng desipramine/ml up to 500 ng desipramine/ml. […] Clinically achievable plasma concentrations of desipramine in depressed patients are in the range of 50 - 200 ng/ml. Desipramine (500 ng/ml) lowered the IC₅₀ and IC₉₀ for chloroquine by 10-fold. An IC₅₀ for a chloroquine-sensitive P. falciparum strain would be approximately 5 ng/ml. Therefore in the presence of clinically relevant concentrations of desipramine, the chloroquine-resistant P. falciparum strain is as sensitive to chloroquine as is the "sensitive" strain. • Figure 4 illustrates the ability of desipramine to enhance the potency of chloroquine against P. falciparum (W2). The experiment is identical to that of Figure 3 but a different strain of P. falciparum was used. […] The IC₅₀ and IC₉₀ for chloroquine are lowered by a factor of approximately 10. […] The anti-psycotic, chloropromazine, was substituted for desipramine in an experiment similar to that in Figure 2. • Figure 7. […] Uptake of [3H]-chloroquine was followed in clone D6 (chloroquine susceptible, ·) and in clone W2 (multidrug-resistant, o) in the absence or presence of desipramine.

In series [2] the test system is chloroquine-sensitive P. falciparum strain. Particulars: stated as 'would be approximately'; cited from earlier work.
In series [3] the test system is P. falciparum (W2). It is filed as cell-based, Plasmodium falciparum. As to the method: (§1) P. falciparum (clone D6, chloroquine-sensitive; strain FCR3, chloroquine-resistant; and clone W2, multidrug-resistant) was grown in vitro by the method of Trager and Jensen, (1976) Science 193, 673-675. • Figure 1 illustrates the effect of desipramine on the inhibition of parasite growth. […] Isobologram analysis was carried out according to the method of Martin, et al., (1987) Science 235, 899-901 and Berenbaum, (1978) Journal of Infectious Diseases 137, 122-130. […] The X-axis is the IC₅₀ (concentration of drug which inhibits hypoxanthine incorporation by 50%) of chloroquine in the absence or presence of desipramine while the Y-axis is the IC₅₀ for desipramine in the absence or presence of chloroquine. […] Dose-response curves and IC₅₀'s for chloroquine were determined either in the absence of desipramine or in the presence of a fixed concentration of desipramine ranging from 50 ng desipramine/ml up to 500 ng desipramine/ml. […] Clinically achievable plasma concentrations of desipramine in depressed patients are in the range of 50 - 200 ng/ml. Desipramine (500 ng/ml) lowered the IC₅₀ and IC₉₀ for chloroquine by 10-fold. An IC₅₀ for a chloroquine-sensitive P. falciparum strain would be approximately 5 ng/ml. […]

The test system of series [4] is chloroquine-susceptible clone D6 of P. falciparum. Nature of the series: [3H]-hypoxanthine incorporation, parasite growth inhibition (chloroquine-susceptible clone D6). It is filed as cell-based, Plasmodium falciparum. To be noted: Figure 5, experiment similar to Figures 3 and 4. The protocol: as §1
In series [5] the test system is clone W2 (multidrug-resistant). Nature of the series: Uptake of [3H]-chloroquine by parasites (clone W2). To be noted: Figure 7; drug-resistant parasites, presence vs absence of desipramine. It is filed as cell-based, P. falciparum. As to the method:
as §1

For series [6] the following is noted: depressed patients; cited from earlier work.
The mark [7] stands for this setting: Figure 3, desipramine 500 ng/ml, FCR3.

`CN(C)CCCN1c2ccccc2Sc2ccc(Cl)cc21` [chloropromazine]: in series [1] (Figure 6, experiment similar to Figure 2, combination with chloroquine), the “synergism of chloropromazine and chloroquine (isobologram)” value is recorded as “synergism”.

Take `CCN(CC)CCCC(C)Nc1ccnc2cc(Cl)ccc12` (stereo not drawn) [chloroquine]: the IC50 entry in series [2] is listed as “approximately 5 ng/ml”.

`CNCCCN1c2ccccc2CCc2ccccc21` [desipramine, Desipramine]: in series [1] (setting [7]), the “lowering of the IC50 for chloroquine” value turned out to be 10 fold and the “lowering of the IC90 for chloroquine” value came to 10 fold. The “effects on P. falciparum when desipramine was added alone” value in series [3] (Figure 4, at the desipramine concentrations used, without chloroquine) was “only slight effects”. Also, in series [3] (W2 compared with FCR3), the “sensitivity of the strain to desipramine” value is reported as “more sensitive”. The “change of the response to chloroquine” value in series [4] is recorded as “does not change the response”. The “accumulation of chloroquine by parasites” value in series [5] is reported as “increases the accumulation of chloroquine”. For the same molecule, in series [6], the “Clinically achievable plasma concentrations” value was 50 to 200 ng/mL.
